Drawing on patent US11147272B2, “Pyridone compounds and agricultural and horticultural fungicides comprising the same as active ingredients” (MITSUI CHEMICALS AGRO, INC., priority 2017, dated 2021), this text covers pest or weed control for 1 compound.

One assay concerns Plasmopara viticola. Briefly: Test Example G: Downy mildew on vine. Conditions: Plasmopara viticola, topical, 168 h, read-out: Test G control value.
Assay [1] deals with Blumeria graminis f. sp. hordei. As to the kind of experiment: Test Example D: Powdery mildew on barley. Conditions: Blumeria graminis, in Hordeum vulgare, topical, read-out: Test D control value.
The test system of another assay is Magnaporthe grisea. As to the kind of experiment: whole plant or invertebrate. The format is in vivo. Conditions: Pyricularia oryzae, in Oryza sativa, read-out: Test A control value.
The next assay deals with Botrytis cinerea. As to the kind of experiment: Test Example B: Gray mold on tomato. Conditions: Botrytis cinerea, in Solanum lycopersicum, topical, read-out: Test B control value.
Assay [2] concerns Colletotrichum orbiculare. As to the kind of experiment: Test Example H: Anthracnose on cucumber. Conditions: Colletotrichum orbiculare, in Cucumis sativus, topical, 144 h, read-out: Test H control value.
The subject of the next assay is Alternaia brassicicola. Briefly: Test Example C: Alternaria sooty spot on cabbage. It counts as in vivo. Conditions: Brassica oleracea, topical; Alternaria sooty spot on cabbage; control value class; read-out: Test C control value. The source says: Seeds of a test plant (cabbage variety: Shikidori) were planted and cultivated until the cotyledons extended.
<Control Value> Control value=100{1−(n/3)}

For a further assay, the system named is Phytophthora infestans. Briefly: whole plant or invertebrate. It counts as in vivo. To be noted: Phytophthora infestans, in Solanum lycopersicum, topical, read-out: Test F control value.
For another assay, the system named is Puccinia recondita. Briefly: Test Example E: Brown rust on wheat. To be noted: Puccinia recondita, topical; Brown rust on wheat; control value class; read-out: Test E control value. The format is in vivo.

With `CCn1c(-c2c(F)cc(F)cc2F)c(C=O)cc(Cl)c1=O` [Compound No. 289, 5-chloro-1-ethyl-6-oxo-2-(2,4,6-trifluorophenyl)-1,6-dihydropyridine-3-carbaldehyde], the pest or weed control at 250 ppm with Plasmopara viticola is below 50%; in assay [2] it was above 50%. The pest or weed control at 250 µg/mL in assay [1] is below 50%; in the assay on Magnaporthe grisea, below 50%; with Botrytis cinerea, above 50%; with Alternaia brassicicola, above 50%; with Phytophthora infestans it was below 50%; in the assay on Puccinia recondita, above 50%.
